Laboratory results as given in patent US8815919B2, “Oxadiazole derivatives” (Merck Serono SA, priority 2009, dated 2014).
Counter-ions that a name gives are not always drawn. Like-named read-outs stand apart in the source and are kept apart here.

How the values were obtained:
S1P1 [1] = biological target: T1, S1P1 (Homo sapiens, UniProt P21453); assay: Receptor binding assay, [33P]sphingosine 1-phosphate competition, S1P1 membranes, WGA SPA beads
Procedure: (§1) Membranes were prepared from CHO cells expressing S1P1 or S1P3 for use in ligand and […] binding studies. Cells were suspended in 50 mM TRIS, pH 7.4, 2 mM EDTA, 250 mM Sucrose (buffer A) and 1× Complete protease inhibitor cocktail (Roche), and disrupted at 4° C. by N2 decompression using a cell disruption bomb (Parr Instrument). Following centrifugation at 1000 RPM for 10 min at 4° C., the supernatant was diluted (2×) in buffer A and centrifuged again at 19000 RPM for 75 min at 4° C. The pellet was then suspended in 10 mM HEPES, pH 7.4, 1 mM EDTA, 250 mM Sucrose (Buffer B), and 1× Complete EDTA-free protease inhibitor cocktail and homogenized using a potter. Membranes were flash frozen in liquid N2 and stored at −80° C.
(§2) Receptor binding assay: [33P]sphingosine 1-phosphate (3000 Ci/mmol; American Radiolabeled Chemicals, Inc.) was added to test compounds in 20% DMSO by competition. Membranes and WGA SPA beads (GE Healthcare) were added to give a final volume of 100 μl in 96-well plates or 50 μl in 384-well plates with assay concentrations of […] [33P]sphingosine 1-phosphate (respectively for S1P1 or S1P3), 50 mM HEPES, pH 7.5, 5 mM MgCl2, 100 mM NaCl, 0.4% fatty acid-free BSA, 1-5 μg/well of proteins in 96-well plates vs 0.6-1 μg/well of proteins in 384-well plates and 100 μg/well of WGA SPA beads in 96-well plates vs 75 μg/well of WGA SPA beads in 384-well plates. Binding was performed for 60 min at RT on a shaker and bound radioactivity was measured on a PerkinElmer 1450 MicroBeta counter. Triplicate samples were averaged and normalized as percentage of inhibition relative to total binding (only DMSO in well) and nonspecific binding (1000-fold excess of unlabeled S1P). Binding data were analyzed using the GraphPad Prism program or Genedata software.
Target sequence in this assay (P21453 whole entry, species assumed): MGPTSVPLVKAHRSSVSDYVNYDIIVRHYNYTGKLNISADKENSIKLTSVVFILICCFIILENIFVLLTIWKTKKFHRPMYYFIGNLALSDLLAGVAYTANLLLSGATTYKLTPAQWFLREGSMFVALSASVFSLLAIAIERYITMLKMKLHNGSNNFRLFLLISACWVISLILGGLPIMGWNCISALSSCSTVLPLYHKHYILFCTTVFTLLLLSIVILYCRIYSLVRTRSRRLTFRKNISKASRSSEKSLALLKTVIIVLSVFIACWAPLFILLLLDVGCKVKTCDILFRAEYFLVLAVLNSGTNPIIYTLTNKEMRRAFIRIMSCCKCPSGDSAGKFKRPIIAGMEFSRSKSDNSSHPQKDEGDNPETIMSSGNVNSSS

S1P3 = S1P3 (Homo sapiens, UniProt Q99500); assay: Receptor binding assay, [33P]sphingosine 1-phosphate competition, S1P3 membranes, WGA SPA beads
S1P3, sequence (Q99500 whole entry, species assumed): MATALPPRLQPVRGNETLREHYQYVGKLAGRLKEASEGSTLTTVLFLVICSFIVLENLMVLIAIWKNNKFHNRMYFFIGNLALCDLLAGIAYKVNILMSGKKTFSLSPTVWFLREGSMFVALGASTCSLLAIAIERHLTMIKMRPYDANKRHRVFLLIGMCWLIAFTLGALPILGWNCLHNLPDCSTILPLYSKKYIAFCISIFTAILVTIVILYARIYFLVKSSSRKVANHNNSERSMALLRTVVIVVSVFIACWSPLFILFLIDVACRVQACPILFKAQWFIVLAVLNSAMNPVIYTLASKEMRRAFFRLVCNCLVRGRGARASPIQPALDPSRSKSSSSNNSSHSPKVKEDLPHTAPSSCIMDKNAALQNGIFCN
Procedure: as §1, §2

S1P1 [2] = biological target: T1, S1P1; assay: S1P1 internalization assay in S1P1-U2OS cells (S1P1-EGFP), cell imaging; format: cell-based; parameters: host or cells: U2OS (human bone osteosarcoma epithelial cells), CMV promoter, geneticin selection; settings: 1 hour incubation
Procedure: Cellular functional assays: Internalization of Sphingosine-1-phosphate receptor 1 (S1P1) in a human Cell line (U2OS) in a 384-well format using a Cell Imaging analysis. • Jo, E.; Sanna, M. G.; Gonzalez-Cabrera, P. J.; Thangada, S.; Tigyi, S.; Osborne, D. A.; Hla, T.; Parrill, A. L.; Rosen, H. Chem. Biol. 2005, 12, 703
The S1P1 internalization assay was performed in 384 well plates (Corning® 384 black with clear bottom 3712) using S1P1-U2OS cells from Biolmage (C039A), a human epithelial cell line (Human Bone Osteosarcoma Epithelial Cells). These cells expressed the human S1P1 Receptor fused to the green fluorescent protein (EGFP). A standard CMV promoter (cytomegalovirus promoter) controls the expression of S1P1-EGFP and continuous expression was maintained by addition of geneticin to the culture medium.
S1P1 Receptor desensitization induced the internalization of the membrane-localized S1P1-EGFP fusion protein to endosomes, which can be monitored by cell imaging analysis. The cells are plated in low serum medium (Dulbecco's Modified Eagle Medium (DMEM) with Glutamax-1 and high glucose, 1% Penicillin/Streptomycin, 1% Fetal Calf Serum (FCS), 0.5 mg/ml Geneticin) overnight.
The next day, S1P1-U2OS cells are incubated in 20 μl serum free medium (DMEM with Glutamax-1 and high glucose, 0.1% of fatty-acid free Bovin Serum Albumin (BSA), 10 mM, N′-2-Hydroxyethylpiperazine-N′-2 ethanesulphonic acid (HEPES) 1M) for 2 hours at 37° C./5% CO2. The cells are then treated with 4 μl compounds/agonists (6×/3% DMSO) for a total volume of 24 μl, and plates are incubated for 1 hour at 37° C./5% CO2.
S1P1-U2OS cells are fixed with 25 μl Paraformaldehyde 8% and stained with Hoechst 33345 dye (1:1000) for 20 minutes.
They were then washed 3 times with Phosphate Buffered Saline (PBS) and plates are sealed. The internalization of the receptor S1P1-EGFP is measured on Cellomics by calculating the “spot count per object” (“object” corresponds to nuclear and “spot” corresponds to S1P1-EGFP receptor). Internalization data were observed thanks to vHCS View and analyzed using Genedata® software.
Target sequence in this assay (P21453 whole entry): as the sequence (P21453 whole entry, species assumed) above

[3] = 384 well-plate, read-out: S1P1 binding Ki (M) (384 well-plate)
[4] = 384 well-plate, read-out: S1P3 binding Ki (M) (384 well-plate)
[5] = 96 well-plate, read-out: S1P1 binding Ki (M) (96 well-plate)
[6] = 96 well-plate, read-out: S1P3 binding Ki (M) (96 well-plate)

SMILES	Ki (S1P1 [1]; [3])	Ki (S1P3; [4])	EC50 (S1P1 [2])	Ki (S1P1 [1]; [5])	Ki (S1P3; [6])
COCc1cc(-c2nc(-c3ccc(CN(C)CC(=O)O)cc3)no2)ccc1-c1ccccc1Cl [Example 118, N-(4-{5-[2′-chloro-2-(methoxymethyl)biphenyl-4-yl]-1,2,4-oxadiazol-3-yl}benzyl)-N-methylglycine, hydrochloride salt]	1.1e-09 M	5.67e-07 M	9.94 nM	–	–
COCc1cc(-c2nc(-c3ccc(CN(C)CC(=O)O)c(F)c3)no2)ccc1-c1ccccc1F [Example 55, N-(2-fluoro-4-{5-[2′-fluoro-2-(methoxymethyl)biphenyl-4-yl]-1,2,4-oxadiazol-3-yl}benzyl)-N-methylglycine, hydrochloride salt]	5.23e-10 M	9.2e-08 M	8.46 nM	1.59e-10 M	7.12e-08 M
COCc1cc(-c2nc(-c3ccc(CN(C)CC(=O)O)cc3)no2)ccc1-c1ccccc1C [Example 51, N-(4-{5-[2-(methoxymethyl)-2′-methylbiphenyl-4-yl]-1,2,4-oxadiazol-3-yl}benzyl)-N-methylglycine, hydrochloride salt]	2.1e-09 M	9.17e-07 M	4.92 nM	3.38e-10 M	7.32e-07 M
Cc1ccccc1-c1ccc(-c2nc(-c3cc(F)cc(CN(C)CC(=O)O)c3)no2)cc1C [Example 133, N-{3-[5-(2,2′-dimethylbiphenyl-4-yl)-1,2,4-oxadiazol-3-yl]-5-fluorobenzyl}-N-methylglycine, hydrochloride salt]	2.81e-09 M	4.72e-07 M	42.2 nM	–	–
CCOc1cc(-c2nc(-c3cccc(CN(C)CC(=O)O)c3)no2)ccc1-c1ccccc1C [Example 30, N-{3-[5-(2-ethoxy-2′-methylbiphenyl-4-yl)-1,2,4-oxadiazol-3-yl]benzyl}-N-methylglycine, hydrochloride salt]	–	–	8.92 nM	2.01e-10 M	3e-08 M
COCc1cc(-c2nc(-c3ccc(CNCC(=O)O)c(F)c3)no2)ccc1-c1ccccc1F [Example 82, N-(2-fluoro-4-{5-[2′-fluoro-2-(methoxymethyl)biphenyl-4-yl]-1,2,4-oxadiazol-3-yl}benzyl)glycine, hydrochloride salt]	3.74e-10 M	5.24e-08 M	1.73 nM	5.42e-11 M	4.66e-08 M
COCc1cc(-c2nc(-c3ccc(CN(C)CC(=O)O)cc3F)no2)ccc1-c1ccccc1C [Example 146, 2-((3-fluoro-4-(5-(2-(methoxymethyl)-2′-methylbiphenyl-4-yl)-1,2,4-oxadiazol-3-yl)benzyl)(methyl)amino)acetic acid, hydrochloride salt]	9.36e-10 M	3.68e-07 M	33.6 nM	–	–
COCc1cc(-c2nc(-c3ccc(CN(C)CC(=O)O)c(Cl)c3)no2)ccc1-c1ccccc1C [Example 128, 2-((4-(5-(2-(methoxymethyl)-2′-methylbiphenyl-4-yl)-1,2,4-oxadiazol-3-yl)-2-chlorobenzyl)(methyl)amino)acetic acid]	1.45e-09 M	5.66e-07 M	13.3 nM	–	–
COCc1cc(-c2nc(-c3cc(CN(C)CC(=O)O)cc(F)c3F)no2)ccc1-c1ccccc1C [Example 126, N-(3,4-difluoro-5-{5-[2-(methoxymethyl)-2′-methylbiphenyl-4-yl]-1,2,4-oxadiazol-3-yl}benzyl)-N-methylglycine, hydrochloride salt]	2.88e-09 M	6.55e-07 M	47 nM	–	–
COCc1cc(-c2nc(-c3cc(F)cc(CN(C)CC(=O)O)c3)no2)ccc1-c1ccccc1F [Example 57, N-(3-fluoro-5-{5-[2′-fluoro-2-(methoxymethyl)biphenyl-4-yl]-1,2,4-oxadiazol-3-yl}benzyl)-N-methylglycine, hydrochloride salt]	–	–	8.46 nM	1.14e-10 M	7.22e-09 M
COCc1cc(-c2nc(-c3cccc(CN(CCO)CCO)c3)no2)ccc1-c1ccccc1C [Example 40, 2,2′-[(3-{5-[2-(methoxymethyl)-2′-methylbiphenyl-4-yl]-1,2,4-oxadiazol-3-yl}benzyl)imino]diethanol]	–	9.69e-07 M	18.2 nM	4.52e-10 M	5.35e-07 M
COCc1cc(-c2nc(-c3ccc(CN(C)CC(=O)O)c(Br)c3)no2)ccc1-c1ccccc1C [Example 53, N-(2-bromo-4-{5-[2-(methoxymethyl)-2′-methylbiphenyl-4-yl]-1,2,4-oxadiazol-3-yl}benzyl)-N-methylglycine, hydrochloride salt]	–	–	7.61 nM	2.14e-10 M	7e-07 M
COCc1cc(-c2nc(-c3ccc(CN(C)CC(=O)O)cc3)no2)ccc1-c1cc(F)ccc1C [Example 127, N-(4-{5-[5′-fluoro-2-(methoxymethyl)-2′-methylbiphenyl-4-yl]-1,2,4-oxadiazol-3-yl}benzyl)-N-methylglycine, hydrochloride salt]	1.12e-09 M	7.6e-07 M	8.68 nM	–	–
COCc1cc(-c2nc(-c3cc(F)c(CN(C)CC(=O)O)c(F)c3)no2)ccc1-c1ccccc1C [Example 151, 2-((2,6-difluoro-4-(5-(2-(methoxymethyl)-2′-methylbiphenyl-4-yl)-1,2,4-oxadiazol-3-yl)benzyl)(methyl)amino)acetic acid, hydrochloride salt]	3.53e-09 M	3.9e-07 M	21.6 nM	–	–
COCc1cc(-c2nc(-c3ccc(CNCC(=O)O)cc3)no2)ccc1-c1ccccc1C [Example 60, N-(4-{5-[2-(methoxymethyl)-2′-methylbiphenyl-4-yl]-1,2,4-oxadiazol-3-yl}benzyl)glycine, hydrochloride salt]	–	–	1.78 nM	3.09e-10 M	1.93e-07 M
COCc1cc(-c2nc(-c3cccc(CN(CCO)CCC(=O)O)c3)no2)ccc1-c1ccccc1C [Example 66, N-(2-hydroxyethyl)-N-(3-{5-[2-(methoxymethyl)-2′-methylbiphenyl-4-yl]-1,2,4-oxadiazol-3-yl}benzyl)-beta-alanine, hydrochloride salt]	2.42e-09 M	1.4e-06 M	44.9 nM	5.36e-10 M	–
COCc1cc(-c2nc(-c3cc(Cl)cc(CN(C)CC(=O)O)c3)no2)ccc1-c1ccccc1C [Example 93, N-(3-chloro-5-{5-[2-(methoxymethyl)-2′-methylbiphenyl-4-yl]-1,2,4-oxadiazol-3-yl}benzyl)-N-methylglycine, hydrochloride salt]	–	–	26.5 nM	3.96e-10 M	9.4e-08 M
COCc1cc(-c2nc(-c3ccc(CN(C)CC(=O)O)cc3)no2)ccc1-c1cccc(F)c1Cl [Example 122, N-(4-{5-[2′-chloro-3′-fluoro-2-(methoxymethyl)biphenyl-4-yl]-1,2,4-oxadiazol-3-yl}benzyl)-N-methylglycine, hydrochloride salt]	1.31e-09 M	2.5e-06 M	5.1 nM	–	–
